Laboratory results as given in US20240182945A1, “PRODUCTS FOR REGULATION OF EUKARYOTIC AND MICROBIAL CELLS GROWTH” (priority 2021, published 2024).

Key:
[1] = system: bacteria of sputum from patients with lung diseases; test: Sputum plated on 24-well plates with antibiotics at Cmax or C0-4 h, Algorithm #1 or #2; type: cell-based; note: key: '+'—presence of bacterial growth, antibiotic ineffective; '−'—absence of bacterial growth, antibiotic effective
Experimental: Pathological material (sputum) from patients with lung diseases was plated into wells of 24-well plates filled with a nutrient medium supplemented with erythrocytes 5%, to which antibiotics were added taken at different concentrations.
Group #1—antibiotics were taken at concentrations close to a maximum (peak) concentration achievable at the site of infection Cmax
Algorithm #1. Lab technician, analyzed the appearance of bacterial growth by comparing the signs of bacterial growth in each well supplemented with antibiotic(s) at certain timepoint, with the signs of bacterial growth in the same well at previous time point(s).
Algorithm #2. Lab technician analyzed the appearance of bacterial growth by comparing the signs of bacterial growth in each well supplemented with antibiotic(s) with bacterial growth in antibiotic-free control

[2] = system: bacteria of the biosample (persisters); test: Neutropenic mice instilled with biosample and treated with antibiotic for 72 h, microbial growth in organs and blood; type: in vivo; conditions: neutropenic C57BL/6 mice treated for 72 h, agar with 100 ug/mL of the antibiotic
Experimental: Next, we confirmed that antibiotics selected with proposed algorithm are effective. Adult C57BL/6 mice were rendered neutropenic by injecting cyclophosphamide subcutaneously 4 days before infection (150 mg/kg of body weight), 1 day before infection (100 mg/kg), and 1 day after infection (100 mg/kg). Mice were anesthetized with 2% isoflurane and orally instilled with biosample (stored at +4 C). Briefly, nares were blocked, and mice aspirated 50 μL of the biosample into the lungs while being held vertically for 60 s.

[3] = system: bacteria of sputum from patients with lung diseases; test: Standard antibiotic susceptibility study using the microbroth dilution method (Algorithm #3); type: cell-based; note: key: '+'—presence of bacterial growth, antibiotic ineffective; '−'—absence of bacterial growth, antibiotic effective
Excerpt: Algorithm #3—Standard antibiotic susceptibility study using the microbroth dilution method.

[4] = system: Pseudomonas aeruginosa; conditions: cited from earlier work
[5] = 3 h; cited from earlier work
[6] = system: S.aureus (PP) and MM in sputum from children with pneumonia; test: Degree of eradication of PP and MM on Columbia agar with antibiotic at concentrations achievable at the site of infection; type: cell-based; parameters: key to Degree of primary pathogen eradication, evaluation of ABEPP: % of primary pathogen (PP) eliminated
Experimental: We next tried to select antibiotics based on building a probability model. Antibiotic efficacy was evaluated based on a novel parameters: • ABEPPMM100—antibiotic concentration that is required for the elimination of 100% “complex” PP+MM. • ABEPPMM99—antibiotic concentration that is required for the elimination of 99% “complex” PP+MM.
ABEPPMM90—antibiotic concentration that is required for the elimination of 90% “complex” PP+MM.
ABEPPMM50—antibiotic concentration that is required for the elimination of 50% “complex” PP+MM.
ABEPP100—antibiotic concentration that affecting on “complex” PP+MM is required for the elimination of 100% PP.
ABEPP99—antibiotic concentration that affecting on “complex” PP+MM is required for the elimination of 99% PP.
ABEPP90—antibiotic concentration that affecting on “complex” PP+MM is required for the elimination of 90% PP.
ABEPP50—antibiotic concentration that affecting on “complex” PP+MM is required for the elimination of 50% PP.
We used sputum from children with pneumonia, with S.aureus as confirmed PP. Patient 1—child • Patient 2—child • Patient 3—child

[7] = Patient 1, C0-1 h, 24 h of growth
[8] = Patient 1, C0-2 h, 24 h of growth
[9] = Patient 1, C0-3 h, 24 h of growth
[10] = Patient 1, C0-4 h, 24 h of growth
[11] = Patient 1, C0-6 h, 24 h of growth
[12] = Patient 1, C0-8 h, 24 h of growth
[13] = Patient 1, C0-12 h, 24 h of growth
[14] = Patient 1, C0-24 h, 24 h of growth
[15] = Patient 1, C2-3 h, 24 h of growth
[16] = Patient 1, C3-4 h, 24 h of growth
[17] = Patient 1, C4-6 h, 24 h of growth
[18] = Patient 1, C6-8 h, 24 h of growth
[19] = Patient 1, C8-12 h, 24 h of growth
[20] = Patient 1, C12-24 h, 24 h of growth
[21] = Patient 1, Cmax × 2, 24 h of growth
[22] = Patient 2, C0-3 h, 24 h of growth
[23] = Patient 2, C0-4 h, 24 h of growth
[24] = Patient 2, C0-6 h, 24 h of growth
[25] = Patient 2, C0-8 h, 24 h of growth
[26] = Patient 2, C0-12 h, 24 h of growth
[27] = Patient 2, C0-24 h, 24 h of growth
[28] = Patient 2, C3-4 h, 24 h of growth
[29] = Patient 2, C4-6 h, 24 h of growth
[30] = Patient 2, C6-8 h, 24 h of growth
[31] = Patient 2, C8-12 h, 24 h of growth
[32] = Patient 2, C12-24 h, 24 h of growth
[33] = Patient 3, C0-3 h, 24 h of growth
[34] = Patient 3, C0-4 h, 24 h of growth
[35] = Patient 3, C0-6 h, 24 h of growth
[36] = Patient 3, C0-8 h, 24 h of growth
[37] = Patient 3, C0-12 h, 24 h of growth
[38] = Patient 3, C0-24 h, 24 h of growth
[39] = Patient 3, C3-4 h, 24 h of growth
[40] = Patient 3, C4-6 h, 24 h of growth
[41] = Patient 3, C6-8 h, 24 h of growth
[42] = Patient 3, C8-12 h, 24 h of growth
[43] = Patient 3, C12-24 h, 24 h of growth

CN[C@H](CC(C)C)C(=O)N[C@H]1C(=O)N[C@@H](CC(N)=O)C(=O)N[C@H]2C(=O)N[C@H]3C(=O)N[C@H](C(=O)N[C@H](C(=O)O)c4cc(O)cc(O)c4-c4cc3ccc4O)[C@H](O)c3ccc(c(Cl)c3)Oc3cc2cc(c3O[C@@H]2O[C@H](CO)[C@@H](O)[C@H](O)[C@H]2O[C@H]2C[C@](C)(N)[C@H](O)[C@H](C)O2)Oc2ccc(cc2Cl)[C@H]1O [Vancomycin]
5/8: Number of animals with positive microbial growth on the agar with antibiotics/total number of animals per group ([2]; Liver)
8/8: Number of animals with positive microbial growth on the agar with antibiotics/total number of animals per group ([2]; Lungs)
6/8: Number of animals with positive microbial growth on the agar with antibiotics/total number of animals per group ([2]; Blood)
not active: activity against Pseudomonas aeruginosa according to standard micro-broth dilution method [4]
+: ATB efficacy ([1]; Algorithm #1, antibiotic at C0-4 h) | ATB efficacy ([1]; Algorithm #2, antibiotic at C0-4 h)
−: ATB efficacy ([1]; Algorithm #1, antibiotic at Cmax) | ATB efficacy ([1]; Algorithm #2, antibiotic at Cmax) | ATB efficacy [3]

C[C@H]1COc2c(N3CCN(C)CC3)c(F)cc3c(=O)c(C(=O)O)cn1c23 [Levofloxacin]
50: Degree of primary pathogen eradication, evaluation of ABEPP [6, 12] | Degree of primary pathogen eradication, evaluation of ABEPPMM [6, 12] | Degree of primary pathogen eradication, evaluation of ABEPP [6, 13] | Degree of primary pathogen eradication, evaluation of ABEPPMM [6, 13] | Degree of primary pathogen eradication, evaluation of ABEPP [6, 19] | Degree of primary pathogen eradication, evaluation of ABEPPMM [6, 19] | Degree of primary pathogen eradication, evaluation of ABEPP [6, 20] | Degree of primary pathogen eradication, evaluation of ABEPPMM [6, 20] | Degree of primary pathogen eradication, evaluation of ABEPP [6, 22] | Degree of primary pathogen eradication, evaluation of ABEPPMM [6, 22] | Degree of primary pathogen eradication, evaluation of ABEPP [6, 23] | Degree of primary pathogen eradication, evaluation of ABEPPMM [6, 23] | Degree of primary pathogen eradication, evaluation of ABEPP [6, 24] | Degree of primary pathogen eradication, evaluation of ABEPPMM [6, 24] | Degree of primary pathogen eradication, evaluation of ABEPP [6, 25] | Degree of primary pathogen eradication, evaluation of ABEPPMM [6, 25] | Degree of primary pathogen eradication, evaluation of ABEPP [6, 26] | Degree of primary pathogen eradication, evaluation of ABEPP [6, 28] | Degree of primary pathogen eradication, evaluation of ABEPPMM [6, 28] | Degree of primary pathogen eradication, evaluation of ABEPP [6, 29] | Degree of primary pathogen eradication, evaluation of ABEPPMM [6, 29] | Degree of primary pathogen eradication, evaluation of ABEPP [6, 30] | Degree of primary pathogen eradication, evaluation of ABEPPMM [6, 30] | Degree of primary pathogen eradication, evaluation of ABEPP [6, 31] | Degree of primary pathogen eradication, evaluation of ABEPP [6, 33] | Degree of primary pathogen eradication, evaluation of ABEPPMM [6, 33] | Degree of primary pathogen eradication, evaluation of ABEPP [6, 34] | Degree of primary pathogen eradication, evaluation of ABEPP [6, 39] | Degree of primary pathogen eradication, evaluation of ABEPPMM [6, 39]
4.7 µg/mL: lung concentration after 3 h of administration [5]
100: Degree of primary pathogen eradication, evaluation of ABEPP [6, 7] | Degree of primary pathogen eradication, evaluation of ABEPP [6, 10] | Degree of primary pathogen eradication, evaluation of ABEPPMM [6, 10] | Degree of primary pathogen eradication, evaluation of ABEPP [6, 11] | Degree of primary pathogen eradication, evaluation of ABEPPMM [6, 11] | Degree of primary pathogen eradication, evaluation of ABEPP [6, 17] | Degree of primary pathogen eradication, evaluation of ABEPPMM [6, 17] | Degree of primary pathogen eradication, evaluation of ABEPP [6, 21]
0: Degree of primary pathogen eradication, evaluation of ABEPP [6, 14] | Degree of primary pathogen eradication, evaluation of ABEPPMM [6, 14] | Degree of primary pathogen eradication, evaluation of ABEPPMM [6, 26] | Degree of primary pathogen eradication, evaluation of ABEPP [6, 27] | Degree of primary pathogen eradication, evaluation of ABEPPMM [6, 27] | Degree of primary pathogen eradication, evaluation of ABEPPMM [6, 31] | Degree of primary pathogen eradication, evaluation of ABEPP [6, 32] | Degree of primary pathogen eradication, evaluation of ABEPPMM [6, 32] | Degree of primary pathogen eradication, evaluation of ABEPPMM [6, 34] | Degree of primary pathogen eradication, evaluation of ABEPP [6, 35] | Degree of primary pathogen eradication, evaluation of ABEPPMM [6, 35] | Degree of primary pathogen eradication, evaluation of ABEPP [6, 36] | Degree of primary pathogen eradication, evaluation of ABEPPMM [6, 36] | Degree of primary pathogen eradication, evaluation of ABEPP [6, 37] | Degree of primary pathogen eradication, evaluation of ABEPPMM [6, 37] | Degree of primary pathogen eradication, evaluation of ABEPP [6, 38] | Degree of primary pathogen eradication, evaluation of ABEPPMM [6, 38] | Degree of primary pathogen eradication, evaluation of ABEPP [6, 40] | Degree of primary pathogen eradication, evaluation of ABEPPMM [6, 40] | Degree of primary pathogen eradication, evaluation of ABEPP [6, 41] | Degree of primary pathogen eradication, evaluation of ABEPPMM [6, 41] | Degree of primary pathogen eradication, evaluation of ABEPP [6, 42] | Degree of primary pathogen eradication, evaluation of ABEPPMM [6, 42] | Degree of primary pathogen eradication, evaluation of ABEPP [6, 43] | Degree of primary pathogen eradication, evaluation of ABEPPMM [6, 43]
99: Degree of primary pathogen eradication, evaluation of ABEPPMM [6, 7] | Degree of primary pathogen eradication, evaluation of ABEPP [6, 8] | Degree of primary pathogen eradication, evaluation of ABEPPMM [6, 8] | Degree of primary pathogen eradication, evaluation of ABEPP [6, 16] | Degree of primary pathogen eradication, evaluation of ABEPPMM [6, 16] | Degree of primary pathogen eradication, evaluation of ABEPPMM [6, 21]
90: Degree of primary pathogen eradication, evaluation of ABEPP [6, 9] | Degree of primary pathogen eradication, evaluation of ABEPPMM [6, 9] | Degree of primary pathogen eradication, evaluation of ABEPP [6, 15] | Degree of primary pathogen eradication, evaluation of ABEPPMM [6, 15] | Degree of primary pathogen eradication, evaluation of ABEPP [6, 18] | Degree of primary pathogen eradication, evaluation of ABEPPMM [6, 18]

CC1=C(C(=O)O)N2C(=O)[C@@H](NC(=O)[C@H](N)c3ccccc3)[C@H]2SC1 [Cephalexin]
not active: activity against Pseudomonas aeruginosa according to standard micro-broth dilution method [4]
